Columns and labels:
[1] = biological target: T1, microsomal triglyceride transfer protein (MTP) (Mesocricetus auratus, UniProt P55158); assay: Inhibition of MTP activity: transfer of [3H]-triolein from donor liposomes to biotinylated LDL, SPA; type: biochemical; details: MTP from golden hamster liver; incubation 18-24 hours at 37° C.; read-out: IC50, concentration that allows a 50% inhibition of MTP
T1 construct: The supernatant comprising the soluble MTP is dialysed against Tris/HCl 150 mM; from tissue; host or cells: golden hamster liver microsomes, deoxycholate-solubilised supernatant, dialysed
T1 sequence (P55158 19-895): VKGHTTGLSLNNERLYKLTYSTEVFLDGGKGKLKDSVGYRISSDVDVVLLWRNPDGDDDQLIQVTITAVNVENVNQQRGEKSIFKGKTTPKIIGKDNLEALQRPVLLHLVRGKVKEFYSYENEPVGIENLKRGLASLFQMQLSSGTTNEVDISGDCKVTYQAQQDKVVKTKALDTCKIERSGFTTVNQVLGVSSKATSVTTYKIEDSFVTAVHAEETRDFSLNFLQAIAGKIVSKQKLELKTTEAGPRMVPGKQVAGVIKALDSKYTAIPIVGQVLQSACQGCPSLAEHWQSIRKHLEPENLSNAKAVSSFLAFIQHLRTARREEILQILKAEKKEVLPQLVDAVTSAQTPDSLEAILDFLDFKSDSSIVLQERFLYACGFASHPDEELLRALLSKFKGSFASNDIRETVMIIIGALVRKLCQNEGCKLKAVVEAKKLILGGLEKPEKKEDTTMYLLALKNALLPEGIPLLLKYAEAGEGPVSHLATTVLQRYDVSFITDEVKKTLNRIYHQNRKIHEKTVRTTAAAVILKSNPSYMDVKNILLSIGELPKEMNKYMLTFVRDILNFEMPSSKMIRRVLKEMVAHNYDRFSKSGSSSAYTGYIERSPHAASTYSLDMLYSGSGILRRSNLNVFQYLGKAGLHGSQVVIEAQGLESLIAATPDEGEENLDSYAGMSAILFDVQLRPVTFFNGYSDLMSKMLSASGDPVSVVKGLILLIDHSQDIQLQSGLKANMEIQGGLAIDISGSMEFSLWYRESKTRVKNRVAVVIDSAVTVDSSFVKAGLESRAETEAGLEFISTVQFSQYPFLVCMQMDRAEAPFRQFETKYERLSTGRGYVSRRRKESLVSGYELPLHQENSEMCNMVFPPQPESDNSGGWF
In short: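 Soluble MTP was extracted with deoxycholate from golden hamster liver microsomes. It was incubated with [3H]-triolein/phosphatidylcholine donor liposomes, biotinylated LDL acceptors and compound in DMSO in HEPES/NaCl/BSA buffer, pH 7.4, for 18-24 h at 37° C. Transfer was read with streptavidin SPA beads, and IC50 was taken as 50% inhibition of transfer.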

[2] = test system: apo B secretion in HepG2 cells; assay: Secretion of apo B in the HepG2 human cell line (sandwich-ELISA); type: cell-based; details: 24 hours incubation, culture supernatant, read-out: IC50, concentration that produces a 50% inhibition of apo B secretion in the HepG2 cells
Method: Analysis of the Secretion of apo B in the HepG2 Human Cell Line:
The activity of a compound according to the invention can be evaluated by measuring the inhibition of apo B secretion in HepG2 cells.
The HepG2 cells (ECACC—No. 85011430) are used as model in the study of the in vitro hepatic secretion of lipoproteins (Dixon J. and Ginsberg H., J., Lipid. Res., 1993, 34, 167-179).
The HepG2 cells are cultured in Dulbecco's modified Eagle's medium comprising 10% foetal calf serum (DMEM and FBS—Gibco) in 96-well plates under an atmosphere of 5% carbon dioxide for 24 hours (about 70% confluence).
The test compounds are dissolved at a concentration of 2 or 10 mM in dimethyl sulfoxide (DMSO). Serial dilutions (1:3.16) are made in DMSO and are added (1:200—Robot Multimek Beckman) to the growth medium (200 μL) and then finally incubated for 24 hours in the various wells containing the HepG2 cells.
The 24-hour culture supernatant diluted to 1:5 (phosphate-buffered saline:PBS comprising 1% bovine serum albumin) is tested according to a sandwich-ELISA method specific for human apo B.
The results are expressed in terms of IC50, i.e. the concentration that produces a 50% inhibition of apo B secretion in the HepG2 cells.

SMILES | IC50 [1] [nM] | IC50 [2] [nM]
CCCCOC(=O)CNC(=O)N1CCC(Oc2cccc(NC(=O)c3cccc(C)c3-c3ccc(OC(F)(F)F)cc3)c2)CC1 [Example 44, butyl N-[[4-[3-[[[6-methyl-4′-(trifluorometh-oxy)[1,1′-biphenyl]-2-yl]carbonyl]amino]-phenoxy]-1-piperidinyl]carbonyl]glycinate] | 171 | 7.4
Cc1cccc(C(=O)Nc2cccc(OC3CCN(C(=O)NCCc4ccccc4)CC3)c2)c1-c1ccc(OC(F)(F)F)cc1 [Example 40, 4-[3-[[[6-methyl-4′-(trifiuoromethoxy)[1,1′-biphenyl]-2-yl]carbonyl]amino]phenoxy]-N-(2-phenylethyl)-1-piperidinecarbox-amide] | 69.1 | 13.7
Cc1cccc(C(=O)Nc2cccc(OC3CCN(C(=O)OCC(C)C)CC3)c2)c1-c1ccc(OC(F)(F)F)cc1 [Example 8, 2-methylpropyl 4-[3-[[[6-methyl-4′-(trifluoromethoxy)[1,1-biphenyl]-2-yl]carbonyl]amino]phenoxy]-1-piperidine-carboxylate] | 55.5 | 25.2
Cc1cccc(C(=O)Nc2cccc(OC3CCN(S(=O)(=O)c4ccccc4)CC3)c2)c1-c1ccc(OC(F)(F)F)cc1 [Example 15, 6-methyl-N-[3-[[1-(phenylsulfonyl)-4-piperidinyl]oxy]phenyl]-4′-(trifluoro-methoxy)[1,1′-biphenyl]-2-carboxamide] | 55.6 | 28.2
Cc1cccc(C(=O)Nc2cccc(OC3CCN(C(=O)OCc4ccccc4)CC3)c2)c1-c1ccc(OC(F)(F)F)cc1 [Example 7, phenylmethyl 4-[3-[[[6-methyl-4′-(trifluoro-methoxy)[1,1′-biphenyl]-2-yl]carbonyl]-amino]phenoxy]-1-piperidinecarboxylate] | 45.2 | 17
Cc1cccc(C(=O)Nc2cccc(OC3CCN(S(C)(=O)=O)CC3)c2)c1-c1ccc(OC(F)(F)F)cc1 [Example 3, 6-methyl-N-[3-[[1-(methylsulfonyl)-4-piperidinyl]oxy]phenyl]-4′-(trifluoro-methoxy)[1,1′-biphenyl]-2-carboxamide] | 49.2 | 10.6
COc1ccc(C(=O)N2CCC(Oc3cccc(NC(=O)c4cccc(C)c4-c4ccc(OC(F)(F)F)cc4)c3)CC2)cc1 [Example 98, N-[3-[[1-(4-methoxybenzoyl)-4-piperidin-yl]oxy]phenyl]-6-methyl-4′-(trifluorometh-oxy)[1,1′-biphenyl]-2-carboxamide] | 101 | 67.1
CCOC(=O)N1CCC(Oc2cccc(NC(=O)c3cccc(C)c3-c3ccc(OC(F)(F)F)cc3)c2)CC1 [Example 6, ethyl 4-[3-[[[6-methyl-4′-(trifluoromethoxy)-[1,1′-biphenyl]-2-yl]carbonyl]amino]-phenoxy]-1-piperidinecarboxylate] | 47.6 | 4
COc1ccc(NC(=O)N2CCC(Oc3cccc(NC(=O)c4cccc(C)c4-c4ccc(OC(F)(F)F)cc4)c3)CC2)cc1 [Example 26] | 72.8 | 75.8
COCCOC(=O)N1CCC(Oc2cccc(NC(=O)c3ccccc3-c3ccc(C(F)(F)F)cc3)c2)CC1 [Example 75, 2-methoxyethyl 4-[3-[[[4′-(trifluoromethyl)-[1,1′-biphenyl]-2-yl]carbonyl]amino]-phenoxy]-1 piperidinecarboxylate] | 130 | 39.8
Cc1cccc(C(=O)Nc2cccc(OC3CCN(C(=O)Oc4ccc([N+](=O)[O-])cc4)CC3)c2)c1-c1ccc(OC(F)(F)F)cc1 [Example 9, 4-nitrophenyl 4-[3-[[[6-methyl-4′-(trifluoro-methoxy)[1,1′-biphenyl]-2-yl]carbonyl]-amino]phenoxy]-1-piperidinecarboxylate] | 51.8 | 7.9
Cc1cccc(C(=O)Nc2cccc(OC3CCN(C(=O)Nc4ccc5c(c4)OCO5)CC3)c2)c1-c1ccc(OC(F)(F)F)cc1 [Example 56, N-1,3-benzodioxol-5-yl-4-[3-[[[6-methyl-4′-(trifluoromethoxy)[1,1′-biphenyl]-2-yl]-carbonyl]amino]phenoxy]-1-piperidine-carboxamide] | 146 | 37.6
CSC(=O)N1CCC(Oc2cccc(NC(=O)c3cccc(C)c3-c3ccc(OC(F)(F)F)cc3)c2)CC1 [Example 10] | 39.2 | 12.2
CCCCS(=O)(=O)N1CCC(Oc2cccc(NC(=O)c3cccc(C)c3-c3ccc(OC(F)(F)F)cc3)c2)CC1 [Example 22] | 45 | 12.7
